Data taken from patent US20250288558A1, “THERAPEUTIC FOR SPINAL CORD INJURY TO INDUCE HYPOTHERMIA” (The Trustees of Indiana University, priority 2024, published 2025).
Where “and” joins values, the source holds several entries; their conditions need not be identical. Identical values can stand only once. Counter-ions that a name gives are not always drawn. Like-named read-outs stand apart in the source and are kept apart here.

How the values were obtained:
[1] = test system: mice with contusive T9 moderate SCI (IH); conditions: IH model
Source text: (§1) Rotarod test: Rotorod is used to assay the hindlimb function of the animal. The animal was put on a rotated device. It consisted of a metal frame with a motorized, rotating assembly of rods. Animals were allowed to remain stationary. […] If animal skilled, it can remain on the device at this speed for extra 30 sec until the 2-min test period elapsed. Normally, a trial was ended if the animal fell completely off the rod or gripped the rod and spun around without attempting to walk on the rod. Mean duration on the rod was recorded.

mouse with a SCI [2] = conditions: 4 hours after 1 ml saline IP injection, n=5
mouse with a SCI [3] = conditions: metabolic cage, n=5
mouse with a SCI [4] = test system: mouse with a SCI
Procedure: Referring to FIGS. 5A-5C, to evaluate the coordination of bladder and external urethral sphincter, urodynamic recordings were performed. Bladder cystometrograph (CMG) and external urethral sphincter electromyography (EMG) were co-recorded. The peak intravesical pressure in CMG indicates the contraction of bladder detrusor. The bursting signal in external urethral sphincter EMG is a sign of relaxation of external urethral sphincter. The coordination of bladder and external urethral sphincter was reflected by the synchronization of two signals. […] In chronically injured mice, restoration of reflex external urethral sphincter relaxation correlates with the re-appearance of external urethral sphincter bursting. Therefore, external urethral sphincter bursting is a good indicator of external urethral sphincter functional recovery after SCI in mice.

[5] = test system: mice with moderate T9 contusive SCI; conditions: weeks 3-6 post-injury, n=10, p<0.05
Source text: Thus, Rotarod was further performed to assess motor coordination, balance, and motor learning specifically post-injury.
as §1

[6] = test system: spinal cord coronal sections of SCI mice; conditions: female, n=3
Procedure: We first measured the lesion size and spared white matter using cresyl violet and cosin staining.
Tissue Processing: All the animals were deeply anesthetized with Avertin and then perfused transcardially with cold saline, followed by a fixative containing 4% paraformaldehyde (PFA) in PBS. The spinal cord was removed, post-fixed overnight in PFA, and cryoprotected for 48 hours in 30% sucrose. Serial 30 μm thick coronal sections were cut using a cryostat (Leica CM 1950), mounted on slides and stored at −20° C. The sections were then processed for histopathological analysis.
Cresyl violet and cosin staining: A set of slides were first removed from the freezer and allowed to air dry for a minimum of 60 minutes at room temperature. Subsequently, the sections were treated with two 5-minute rinses in 10 mM PBS, followed by a 1-minute rinse in ddH2O. Next, slides were immersed for 20 minutes in Nissl stain, followed by two 5-minute rinses in ddH2O. Subsequently, slides were sequentially immersed in 90% ethanol (3 minutes), 95% ethanol (3 minutes), two changes of 100% ethanol (3 minutes each), and finally, three changes of 100% xylene (3 minutes each). Lastly, slides were mounted using Permount.

[7] = test system: none-injury young adult c57 BL/6 mice
Procedure: The effects of different doses of Dex on hypothermia induction in none-injury young adult c57 BL/6 mice was tested. […] Further, we examined the change of Dex induced hypothermia when the routine Avertin (2.5%), a wildly used anesthetic for small animal surgery was applied.

[8] = test system: mice with moderate T9 contusive SCI; conditions: n=10; for foot fall rate: Dex+SCI
Source text: In addition to Rotarod test, Grid walk test further was ran twice at […] post-injury to assess hindlimb movements involved in sensorimotor functions, such as precise stepping, coordination and accurate placement of the paw. A one-foot drop error was counted when the hindlimb paw was entirely dropping through the grid with all toes and heel below the grid surface.
Grid-walking: The grid-walking test assesses the ability of a mouse to place its paws on the rungs of a grid accurately during spontaneous exploration. An elevated metal rectangle grid (12×36 inch2 with each grid cell 0.5×0.5 inch2) and 16 inches above a table top was used for the hindlimb drop error test. Each mouse was placed in the center of the grid for 3 min. A one-foot drop error was counted when the hindlimb paw was entirely dropping through the grid with all toes and heel below the grid surface. The total number of foot drop errors and total number of steps were recorded by video. Two observers who were blinded to the experiment analyzed the video and counted the steps. The grid-walking test was performed on the day before surgery and on days 21 and 35 post-SCI. Only those mice with consistent plantar stepping (BMS≥5) were tested on the grid.

[9] = test system: mice with contusive T9 moderate SCI (IH); conditions: end of BMS test, IH model
Source text: The scores ranged from 9 to 0 that represent normal movement to complete paralysis, respectively.

[10] = test system: c-fos positive neurons in raphe nuclei; conditions: during urodynamic recording
Source text: During the urodynamic recording, brain stem neurons controlling the urination within the spared supraspinal circuitry were activated and expressed c-fos.

In the case of `Cc1cccc([C@H](C)c2cnc[nH]2)c1C` [Dex, dexmedetomidine hydrochloride], the Rotarod duration time ([1]; 6 wk, SCI+Dex, n=10) was 35.3±1.84, the “Rotarod average increase rate vs. none-treatment SCI mice” value [1] was 55% and the frequency of urination (mouse with a SCI [2]) was 6±0.82. For the same molecule, the urine volume (mouse with a SCI [2]) was 0.3 ± 0.04 mL, the urination volume (mouse with a SCI [3]; 24 hours) was 0.48 ± 0.22 mL and the residual urine volume (mouse with a SCI [3]) was 0.4 ± 0.22 mL. For the same molecule, the voiding efficiency (mouse with a SCI [4]; n=5, p<0.05 vs. SCI group) was 15.9±6.6%, the bladder capacity (mouse with a SCI [4]; p<0.05 vs. SCI group) was 0.56 ± 0.31 mL and the “synchronization of bladder CMG and external urethral sphincter EMG signals” value (mouse with a SCI [4]; vs. SCI) was “enhanced the synchronization”. For the same molecule, the “increased rate of Rotarod retention time vs. SCI only” value [5] was “around 75%”, the “total area of spinal cord section, SCI+Dex vs. SCI” value [6] was “no significant difference” and the hypothermia induction ([7]; Dex 1 μg/kg IP, none-injury mice) was “failed to induce hypothermia”. The hypothermia induction ([7]; Dex 10 μg/kg IP, none-injury mice) was “failed to induce hypothermia”, the duration of hypothermia ([7]; Dex 50 μg/kg IP, ambient temperature 24.5° C.) was “less than one hour” and the hypothermia body temperature ([7]; Dex 50 μg/kg IP, ambient temperature 24.5° C., mild hypothermia) was 34-35 °C. For the same molecule, the duration of hypothermia ([7]; Dex 50 μg/kg one hour post Avertin (2.5%), none-injury mice) was 2 h, the duration of hypothermia ([7]; Dex 100 μg/kg IP alone, ambient temperature 24.5° C., hydrochloride) was 2 h and 3 h and the hypothermia body temperature ([7]; Dex 100 μg/kg IP, mild to moderate hypothermia) was 30-32 °C. For the same molecule, the duration of hypothermia ([7]; Dex 100 μg/kg one hour post Avertin (2.5%), none-injury mice) was 6 h, the “death of treated mice” value ([7]; Dex 200 μg/kg IP, due to urethral obstructions) was “about 40%” and the hypothermia body temperature ([7]; Dex 200 μg/kg IP, more severe hypothermia) was “lower than 28 °C”. For the same molecule, the “induced hypothermia body temperature” value ([7]; in one hour at ambient temperatures 24-25° C., modest hypothermia) was 30-32 °C, the foot fall rate ([8]; 4 weeks post-injury) was 17.3±5.1% and the foot fall rate ([8]; 6 weeks post-injury) was 12.9±3.6%. For the same molecule, the “recovery of sensorimotor functions (Grid Walk)” value ([8]; FIG. 3D, female) was “better recovery of sensorimotor functions”, the “BMS increase rate vs. SCI” value [9] was 56% and the BMS score ([9]; SCI+Dex, n=10) was 7.13±0.48. The “c-fos positive neurons in raphe nuclei vs. SCI group” value [10] was “Significantly more c-fos positive neurons”.
